In patent US4593018A, “Oligopeptide aldehydes useful as specific inhibitors of enterokinase” (National Research Development Corp., priority 1983, dated 1986):
Residues, ends and D or L forms follow the SMILES beside them. No end group written: not given here. *: point of attachment. Boc = CC(C)(C)OC(=O)*

Columns and labels:
Type in all cases: biochemical
Pig Enterokinase = Pig Enterokinase (Sus scrofa, UniProt P98074); experiment: Inhibition of pig enterokinase, α-N-[3H]acetyl trypsinogen as substrate; conditions: substrate α-N-[3H]acetyltrypsinogen
Protocol: (§1) Biological testing was carried out on the polyaspartyl argininal materials prepared as described above without further purification. […] Inhibition constants Ki for human and pig enterokinase were calculated using α-N-[^3 H] acetyl trypsinogen and Gly-(Asp)4 -Lys-2-Nap as substrates using linear regression analysis of l/v against [I] at three substrate concentrations. Inhibition of trypsin catalysed hydrolysis of both these substrates and Bz-Arg-OEt was expressed as the IC50, the concentration of inhibitor required to reduce trypsin activity by 50%. The results to activation peptides, four peptides of the invention, leupeptin and p-aminobenzamidine are set out in Tables 1 to 3 below.

Human Enterokinase [1] = molecular target: T1, Human Enterokinase (Homo sapiens, UniProt P98073); experiment: Inhibition of human enterokinase, α-N-[3H]acetyl trypsinogen as substrate; conditions: substrate α-N-[3H]acetyltrypsinogen
Protocol: as §1

Human Enterokinase [2] = molecular target: T1, Human Enterokinase; experiment: Inhibition of human enterokinase, Gly-(Asp)4-Lys-2-Nap as substrate; conditions: substrate Gly-(Asp)4-Lys-2-Nap; linear regression of 1/v against [I] at three substrate concentrations
Protocol: as §1

Pig Enterokinase, sequence (P98074 52-1034): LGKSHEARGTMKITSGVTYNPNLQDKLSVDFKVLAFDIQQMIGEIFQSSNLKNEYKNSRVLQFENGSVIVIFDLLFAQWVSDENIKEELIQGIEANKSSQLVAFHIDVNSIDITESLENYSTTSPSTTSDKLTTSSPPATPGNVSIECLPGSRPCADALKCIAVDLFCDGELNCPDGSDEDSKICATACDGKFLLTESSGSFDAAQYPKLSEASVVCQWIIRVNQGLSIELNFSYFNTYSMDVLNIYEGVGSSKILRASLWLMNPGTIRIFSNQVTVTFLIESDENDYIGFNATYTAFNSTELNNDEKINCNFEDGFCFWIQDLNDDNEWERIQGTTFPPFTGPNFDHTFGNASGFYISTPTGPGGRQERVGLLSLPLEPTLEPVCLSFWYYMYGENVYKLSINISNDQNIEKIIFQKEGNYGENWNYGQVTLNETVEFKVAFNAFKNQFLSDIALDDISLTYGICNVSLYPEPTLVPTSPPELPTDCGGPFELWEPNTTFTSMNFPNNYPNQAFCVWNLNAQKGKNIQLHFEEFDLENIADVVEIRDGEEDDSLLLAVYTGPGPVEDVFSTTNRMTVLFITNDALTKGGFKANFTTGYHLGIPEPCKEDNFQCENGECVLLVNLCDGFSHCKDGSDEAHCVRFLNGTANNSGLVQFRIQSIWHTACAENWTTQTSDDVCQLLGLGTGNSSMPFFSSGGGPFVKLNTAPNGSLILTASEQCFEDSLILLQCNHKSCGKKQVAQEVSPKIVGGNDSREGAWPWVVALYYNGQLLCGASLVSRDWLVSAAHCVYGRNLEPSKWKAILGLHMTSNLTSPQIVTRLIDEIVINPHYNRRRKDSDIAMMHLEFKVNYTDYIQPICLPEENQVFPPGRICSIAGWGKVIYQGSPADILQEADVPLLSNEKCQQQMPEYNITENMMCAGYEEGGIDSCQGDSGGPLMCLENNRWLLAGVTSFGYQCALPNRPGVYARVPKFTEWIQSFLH
T1 sequence (P98073 whole entry): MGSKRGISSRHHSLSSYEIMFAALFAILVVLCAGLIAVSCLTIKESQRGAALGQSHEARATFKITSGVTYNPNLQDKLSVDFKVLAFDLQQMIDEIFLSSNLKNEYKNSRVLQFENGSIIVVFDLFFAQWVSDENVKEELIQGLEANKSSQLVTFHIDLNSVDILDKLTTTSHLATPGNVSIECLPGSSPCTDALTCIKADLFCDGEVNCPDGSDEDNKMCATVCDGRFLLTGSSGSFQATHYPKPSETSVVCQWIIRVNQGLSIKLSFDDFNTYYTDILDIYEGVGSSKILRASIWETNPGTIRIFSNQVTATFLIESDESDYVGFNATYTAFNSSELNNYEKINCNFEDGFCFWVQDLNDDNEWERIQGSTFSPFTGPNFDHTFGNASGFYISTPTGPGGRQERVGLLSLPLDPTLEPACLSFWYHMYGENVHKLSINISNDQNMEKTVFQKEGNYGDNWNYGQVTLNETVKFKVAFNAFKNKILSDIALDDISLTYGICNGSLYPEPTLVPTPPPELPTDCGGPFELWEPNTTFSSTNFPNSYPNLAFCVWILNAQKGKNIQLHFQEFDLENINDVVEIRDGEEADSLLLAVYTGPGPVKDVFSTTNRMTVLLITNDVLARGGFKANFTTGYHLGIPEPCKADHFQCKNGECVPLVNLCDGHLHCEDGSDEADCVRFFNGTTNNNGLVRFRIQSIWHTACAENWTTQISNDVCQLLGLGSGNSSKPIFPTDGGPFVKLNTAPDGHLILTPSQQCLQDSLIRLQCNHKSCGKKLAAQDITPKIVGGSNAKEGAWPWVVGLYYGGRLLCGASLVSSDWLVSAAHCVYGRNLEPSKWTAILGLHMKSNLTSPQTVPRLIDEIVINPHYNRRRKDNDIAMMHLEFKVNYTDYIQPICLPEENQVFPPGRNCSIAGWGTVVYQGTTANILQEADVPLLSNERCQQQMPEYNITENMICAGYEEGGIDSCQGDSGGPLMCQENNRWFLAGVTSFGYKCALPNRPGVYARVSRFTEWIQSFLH

| Ki (Pig Enterokinase) | Ki (Human Enterokinase [1]) | Ki (Human Enterokinase [2]) | Molecule |
| --- | --- | --- | --- |
| ≥ 1000 nM |  | 1000 nM | CC(=O)N[C@@H](CC(C)C)C(=O)N[C@@H](CC(C)C)C(=O)N[C@H](C=O)CCCNC(=N)N [Leupeptin, reference compound] |
| ≥ 50000 nM | ≥ 50000 nM |  | N=C(N)c1ccc(N)cc1 [p-aminobenzamidine, reference compound] |

Further lines, the molecule ahead of its results:

| Molecule | Ki (Pig Enterokinase) | Ki (Human Enterokinase [1]) | Ki (Human Enterokinase [2]) |
| --- | --- | --- | --- |
| CC(C)(C)OC(=O)N[C@@H](CC(=O)O)C(=O)N[C@@H](CC(=O)O)C(=O)N[C@H](C=O)CCCNC(=N)N [Boc(Asp)2 Argal, Boc--(Asp)2 --Argininal] (Boc-Asp-Asp-Arg-aldehyde) | 50 ± 10 nM | 10 ± 5 nM | 200 ± 50 nM |
| CC(C)(C)OC(=O)N[C@@H](CC(=O)O)C(=O)N[C@@H](CC(=O)O)C(=O)N[C@@H](CC(=O)O)C(=O)N[C@H](C=O)CCCNC(=N)N [Boc(Asp)3 Argal, Boc--(Asp)3 --Argininal] (Boc-DDDR-aldehyde) | 35 ± 5 nM | 20 ± 5 nM | 100 nM |
| CC(C)(C)OC(=O)N[C@@H](CC(=O)O)C(=O)N[C@@H](CC(=O)O)C(=O)N[C@@H](CC(=O)O)C(=O)N[C@@H](CC(=O)O)C(=O)N[C@H](C=O)CCCNC(=N)N [Boc(Asp)4 Argal, Boc--(Asp)4 --Argininal] (Boc-DDDDR-aldehyde) | 20 ± 10 nM | 10 ± 5 nM | 55 ± 5 nM |
| APFDDDDK [Ala--Pro--Phe--(Asp)4 Lys, reference compound] |  |  | 750000 nM |
| DDDDK [(Asp)4 Lys, reference compound] |  |  | 100000 nM |
